Here are results for ten molecules from patent US8063225B2, “Tricyclic compound derivatives useful in the treatment of neoplastic diseases, inflammatory disorders and immunomodulatory disorders” (Chembridge Corporation, priority 2006, dated 2011).

Common to all, as to assay type: cell-based
One assay concerns U266. Briefly: Cell proliferation inhibition, MTT assay, U266. As to conditions: Homo sapiens, U-266, 72 h, U266 multiple myeloma cells, 3-day proliferation. An excerpt: (§1) IGF1R and other tyrosine kinase inhibitors can inhibit the proliferation of certain cancer cell lines indicating their possible therapeutic utility for treating the corresponding cancer types. Cancer cell lines of interest and control normal lines, including CHO, HEK293, BA/F3, COLO205, PC3, DU145, MCF7, Panc1, ACHN, Hep G2, H460, K562, TT, U87-MG, CAOV-3, SK-MEL5, Karpas 299 and human multiple myeloma cell lines H929, MM1s, MM1r, UTMC2, CPM2, KMS11, My5, KMS12PE, My7, JJN3, KMS18, U266, SKMM2, RPMI-8226 are plated in white, clear-bottomed 384-well cell culture plates at 2500-5000 cells per well and supplied with dilutions of tested compounds After a desired period of time (typically 3 days), the number of viable cells is quantitated by using Cell Titer-Glo Luminescent Cell Viability Assay (Promega), a cell proliferation assay system based on detection of total amount of ATP present as a measure of cell metabolic activity. The plated cells are mixed with the Cell Titer-Glo developing reagent and counted in a luminescence multiwell plate reader according to the standard manufacturer's protocol to generate IC50 curves for cell proliferation inhibition. Results are typically reported as percent of growth (% viability =(OD72h(compound)−ODday0))/(OD72h(no compound)−ODday0). Alternatively, viable cells are quantitated by using the conventional colorimetric MTT assay. The MTT assay is based on the cleavage of the yellow tetrazolium salt MTT to purple formazan crystal by metabolic active cells. The formazan is then solubilized, and the concentration determined by optical density at 570 nm. The cells plated and incubated with a compound as described above are supplemented with the solution of MTT and incubated for 2-3 hours. The growth medium is removed and dimethyl sulfoxide is added into each well to dissolve the formazan. The absorbance is measured on an ELISA plate reader with a test wavelength of 570 nm and a background subtraction wavelength of 630 nm to obtain sample signal (OD570-OD630). […] The results are reported in terms of IC50 value for a particular compound and a cell line in the standard 3-day proliferation assay using Cell Titer-Glo. […] The results are reported in terms of IC50 value for a particular compound and a cell line in the standard 3-day proliferation assay using MTT assay.

The test system of another assay is KMS18. Briefly: Cell proliferation inhibition, MTT assay, KMS18. As to conditions: Homo sapiens, 72 h, KMS18 multiple myeloma cells, 3-day proliferation.
From the text: as §1

Another assay concerns KMS12PE. Briefly: Cell proliferation inhibition, MTT assay, KMS12PE. The settings on record: Homo sapiens, 72 h, KMS-12PE multiple myeloma cells, 3-day proliferation.
From the text: as §1

In the next assay the test system is SKMM2. Briefly: Cell proliferation inhibition, MTT assay, SKMM2. As to conditions: Homo sapiens, SK-MM-2, 72 h, SKMM2 multiple myeloma cells, 3-day proliferation.
From the text: as §1
For orientation: Tetrazolium dyes change colour on reduction, which living cells bring about.

A further assay concerns RPMI-8226. Briefly: Cell proliferation inhibition, MTT assay, RPMI-8226. The settings on record: Homo sapiens, 72 h, RPMI-8226 multiple myeloma cells, 3-day proliferation.
From the text: as §1

Another assay relates to JJN3. Briefly: Cell proliferation inhibition, MTT assay, JJN3. As to conditions: Homo sapiens, JJN-3, 72 h, JJN3 multiple myeloma cells, 3-day proliferation.
From the text: as §1

Another assay relates to My7. Briefly: Cell proliferation inhibition, MTT assay, My7. As to conditions: Homo sapiens, Multiple myeloma cell, 72 h, My7 multiple myeloma cells, 3-day proliferation.
From the text: as §1

The next assay has as its system My5. Briefly: Cell proliferation inhibition, MTT assay, My5. The settings on record: Homo sapiens, Multiple myeloma cell, 72 h, My5 multiple myeloma cells, 3-day proliferation.
From the text: as §1

The subject of a further assay is H929. Briefly: Cell proliferation inhibition, MTT assay, H929. The settings on record: Homo sapiens, NCI-H929, 72 h, H929 multiple myeloma cells, 3-day proliferation.
From the text: as §1

Assay [1] deals with CHO (chinese hamster ovary). Briefly: Cell proliferation inhibition, MTT assay, CHO. As to conditions: Cricetulus griseus, 72 h, CHO cells, 3-day proliferation.
From the text: as §1

Another assay has as its system UTMC2. Briefly: Cell proliferation inhibition, MTT assay, UTMC2. As to conditions: Homo sapiens, 72 h, UTMC2 multiple myeloma cells, 3-day proliferation.
From the text: as §1

The test system of a further assay is CPM2. Briefly: Cell proliferation inhibition, MTT assay, CPM2. The settings on record: Homo sapiens, Multiple myeloma cell, 72 h, CPM2 multiple myeloma cells, 3-day proliferation.
From the text: as §1

The next assay has as its system MM1s. Briefly: Cell proliferation inhibition, MTT assay, MM1s. As to conditions: Homo sapiens, MM1.S, 72 h, MM1S multiple myeloma cells, 3-day proliferation.
From the text: as §1

The next assay relates to MM1r. Briefly: Cell proliferation inhibition, MTT assay, MM1r. As to conditions: Homo sapiens, MM.1R, 72 h, MM1R multiple myeloma cells, 3-day proliferation.
From the text: as §1

For assay [2], the system named is HEK293 (human normal embryonic kidney). Briefly: Cell proliferation inhibition, MTT assay, HEK293. As to conditions: 72 h, HEK293 cells, 3-day proliferation, read-out: HEK IC50.
From the text: as §1

The test system of another assay is KMS11. Briefly: Cell proliferation inhibition, MTT assay, KMS11. As to conditions: Homo sapiens, KMS-11, 72 h, KMS11 multiple myeloma cells, 3-day proliferation.
From the text: as §1

pIC50: −log10 of the molar value. Where only a bound is given, the exact number is not on record here.

With `CCc1cc2c(cc1OCC(=O)CNc1cc[nH]c(=O)c1-c1nc3cc4c(cc3[nH]1)C(=O)N(C1CCN(C)CC1)C4)OCO2` [drawing 849], the pIC50 (as a rule, −log10 of the IC50, conventionally taken in molar units) was 5.30 to 6.00 in the assay with U266; 5.30 to 6.00 with KMS18; 4.70 to 5.30 with KMS12PE; 4.70 to 5.30 in the assay with SKMM2; 4.70 to 5.30 in the assay on RPMI-8226; 5.30 to 6.00 with JJN3. Besides, the pIC50 in the assay with My7 was 5.30 to 6.00; with My5, 4.70 to 5.30.

In the case of `COc1ccc(OCC(=O)CNc2cc[nH]c(=O)c2-c2nc3cc4c(cc3[nH]2)C(=O)N(C2CCN(C)CC2)C4)c(Cl)c1` [drawing 850], the pIC50 in the assay on U266 is 5.30 to 6.00; in the assay with KMS18, 5.30 to 6.00; with KMS12PE, 5.30 to 6.00; in the assay with SKMM2, 4.70 to 5.30; in the assay with RPMI-8226 it was 4.70 to 5.30; with JJN3 it was 5.30 to 6.00. Besides, the pIC50 in the assay on My7 and in the assay with My5 was 4.70 to 5.30 throughout.

Take `Cc1ccc(OCC(=O)CNc2cc[nH]c(=O)c2-c2nc3cc4c(cc3[nH]2)CN(CCCN2CCCC2)C4=O)c(C)c1` [drawing 847]: the pIC50 in the assay on U266, in the assay on KMS18, in the assay with KMS12PE, in the assay on SKMM2, in the assay with RPMI-8226 and in the assay with JJN3 was 4.70 to 5.30 in each case. Also, the pIC50 in the assay with My7 and in the assay with My5 was 4.70 to 5.30 in each case.

On to `Cc1ccc(OCC(=O)CNc2cc[nH]c(=O)c2-c2nc3cc4c(cc3[nH]2)CN(CCCN2CCCC2)C4=O)c(C)c1` [drawing 840], for which the pIC50 in the assay on H929 is 6.00 to 6.30; in assay [1], not above 4.70; with UTMC2, 6.00 to 6.30; in the assay with CPM2, 4.70 to 5.30; in the assay on MM1s, 5.30 to 6.00; with MM1r it was 5.30 to 6.00. The pIC50 was not above 4.70 in assay [2] and 4.70 to 5.30 in the assay with KMS11.

`Cc1ccc(OCC(=O)CNc2cc[nH]c(=O)c2-c2nc3cc4c(cc3[nH]2)CN(C2CCN(C)CC2)C4=O)c(C)c1` [drawing 838]: the pIC50 in the assay on H929 was more than 6.30; in [1], not above 4.70; in the assay on UTMC2 it was 6.00 to 6.30; in the assay with CPM2 it was 5.30 to 6.00; with MM1s it was more than 6.30; with MM1r, 6.00 to 6.30. Moreover, the pIC50 in assay [2] was not above 4.70; in the assay on KMS11 it was 5.30 to 6.00.

Consider `COc1ccc(OCC(=O)CNc2cc[nH]c(=O)c2-c2nc3cc4c(cc3[nH]2)C(=O)N(C2CCN(C)CC2)C4)c(Cl)c1` [drawing 843], for which the pIC50 in the assay with H929 is 6.00 to 6.30; in assay [1], not above 4.70; with UTMC2, more than 6.30; with CPM2, 5.30 to 6.00; in the assay on MM1s it was 6.00 to 6.30; in the assay on MM1r it was 5.30 to 6.00. Further, the pIC50 was not above 4.70 in assay [2] and 5.30 to 6.00 in the assay with KMS11.

Turning to `CN1CCC(N2Cc3cc4[nH]c(-c5c(NCC(=O)COc6ccccc6Br)cc[nH]c5=O)nc4cc3C2=O)CC1` [drawing 848], the pIC50 in the assay on U266 was 5.30 to 6.00; in the assay on KMS18, 6.00 to 6.30; in the assay with KMS12PE, 5.30 to 6.00; with SKMM2 it was 5.30 to 6.00; in the assay with RPMI-8226, 4.70 to 5.30; with JJN3, 5.30 to 6.00. Moreover, the pIC50 in the assay with My7 and with My5 was 5.30 to 6.00 throughout.

Regarding `CCc1cc2c(cc1OCC(=O)CNc1cc[nH]c(=O)c1-c1nc3cc4c(cc3[nH]1)C(=O)N(C1CCN(C)CC1)C4)OCO2` [drawing 842], the pIC50 in the assay with H929 was 6.00 to 6.30; in assay [1], not above 4.70; in the assay on UTMC2 it was more than 6.30; with CPM2, 5.30 to 6.00; in the assay with MM1s it was more than 6.30; with MM1r, 5.30 to 6.00. Also, the pIC50 is not above 4.70 in [2] and 5.30 to 6.00 in the assay with KMS11.

As for `CN1CCC(N2Cc3cc4[nH]c(-c5c(NCC(=O)COc6ccccc6Br)cc[nH]c5=O)nc4cc3C2=O)CC1` [drawing 841], the pIC50 in the assay on H929 is more than 6.30; in [1] it was not above 4.70; in the assay on UTMC2, more than 6.30; with CPM2, 5.30 to 6.00; in the assay with MM1s, more than 6.30; with MM1r it was 6.00 to 6.30. Moreover, the pIC50 in [2] is not above 4.70; in the assay with KMS11 it was 5.30 to 6.00.

Take `Cc1ccc(OCC(=O)CNc2cc[nH]c(=O)c2-c2nc3cc4c(cc3[nH]2)CN(C2CCN(C)CC2)C4=O)c(C)c1` [drawing 845]: the pIC50 in the assay with U266 was 5.30 to 6.00; in the assay with KMS18, 5.30 to 6.00; in the assay on KMS12PE it was 5.30 to 6.00; in the assay with SKMM2, 4.70 to 5.30; in the assay with RPMI-8226, 4.70 to 5.30; in the assay with JJN3 it was 5.30 to 6.00. Moreover, the pIC50 with My7 and in the assay with My5 was 5.30 to 6.00 each time.
